According to patent publication US20210308034A1, “PREBIOTIC COMPOSITIONS AND METHODS FOR MAINTAINING A HEALTHY SKIN MICROBIOTA” (KIMBERLY-CLARK WORLDWIDE, INC., priority 2018, published 2021):
Where a SMILES comes first, the peptide text is derived from it.

Tests used:
Assay type in all cases: cell-based
[1] = system: Klebsiella pneumoniae (ATCC BAA-2146); settings: Pathogenic; carbon microarray plate, OD 600 nm, 36 hr, 33° C.; positive = more than 0.05 OD units above zero; blank cell = not utilized
Source text: (§1) After creating desired ratios of various commensal skin bacteria in a healthy skin microbiome, 188 different carbohydrate sources were screened as the next step in determining potential prospects for skin microbiota balancing agents. The screening process was set up to determine which carbohydrate sources promoted commensal and/or pathogenic bacteria as well as to obtain individual and combinations of carbohydrate sources that could serve as microbiota balancing agents that can support or maintain the healthy proportions of commensal skin bacteria of Corynebacterium, Staphylococcus, and Micrococcus. The screening was conducted utilizing Biolog phenotype microarray plates (Hayward, Calif.). Table 1 provides a coded list of the commensal and pathogenic skin bacteria that the carbohydrates were screened against.
Table 2 provides the results of screening various carbohydrate sources against the commensal and pathogenic bacteria codes listed in Table 1. The Bacteria Codes B, D, E, I, and J are commensal bacteria and are shaded in Table 2 for references purposes. The bacteria codes were each placed in a carbon microarray plate and screened through the Carbohydrate Screening Test Method, as described in the Test Methods section herein. If a particular bacteria code utilized a specific carbohydrate source as described in the Carbohydrate Screening Test Method, then the corresponding cell in Table 2 was marked with a Y (short for “Yes”). […] Many of the carbohydrate sources were utilized by both commensal and pathogenic bacteria, and as such, would not provide an advantage for selective growth of the commensal bacteria. However, some of the carbohydrate sources were only used by commensal bacteria and were identified for further testing as described herein.
The study employed 10 representative skin bacteria; Staphylococcus epidermidis ATCC 14990, Staphylococcus epidermidis M23864:W2, Staphylococcus aureus ATCC 6538, Staphylococcus aureus ATCC 25904 (Newman), Pseudomonas aeruginosa ATCC 9027, Micrococcus luteus ATCC […], Micrococcus luteus SK58, Klebsiella pneumoniae ATCC BAA-2146, Corynebacterium amycolatum SK46, and Corynebacterium minutissimum ATCC 23348. Cultures were started from freezer bead stocks by placing a single bead into 20 mL of tryptic soy broth (TSB) for all organisms except C. amycolatum SK46 and C. minutissimum ATCC 23348, which were placed into brain heart infusion (BHI) broth. Cultures were grown for about 24 hr at 37° C. except M. luteus ATCC 49732 and M. luteus SK58, which were grown at 30° C. A passage of the culture was made using a sterile swab and streaked onto two M9*2 agar plates to prepare the incubated culture for the phenotype microarray pate according to Table 4. Plates were incubated for about 24 hr at 37° C. except for M. luteus ATCC 49732 and M. luteus SK58, which were incubated at 30° C. for 24 hr.
All cultures were harvested and washed before inoculation into the carbon microarray plate (BiOLOG, Hayward Calif.), with Biolog Plates PM1 and PM2 each having a source definition of Carbon. The bacteria on the M9*2 agar was suspended via agitation with an inoculating loop in 1 mL of M9*1 media for collection in a 1.7 mL micro centrifuge tube, as noted in Table 4. The bacteria was suspended again in M9*1 media, agitated, and collected into the same 1.7 mL microcentrifuge tube used in the previous step. The tube was centrifuged for 5 minutes at 4,000×G, supernatant decanted, the pellet was resuspended in 1 mL of M9*1 media, and vortex. This washing process was repeated for a total of 4 times.
A tenfold dilution in M9*1 media was performed using 1 mL of the washed bacterial culture. Of the tenfold dilution 200 μL was placed in an untreated 96-well plate (Falcon, Pasadena Tx.) for an initial optical density (OD) reading at a wavelength of 600 nm. The OD was used to correlate to colony forming units (CFU) per milliliter by using linear regression lines for each organism. […]

[2] = system: Corynebacterium jeikum (ATCC 33033); test: Carbohydrate Screening Test Method (Biolog phenotype microarray), Bacteria Code B; settings: for Carbohydrate Screening Results, Bacteria Code B: Commensal, carbon microarray plate, OD 600 nm, 36 hr, 33° C., positive = more than 0.05 OD units above zero, blank cell = not utilized
Method: as §1, with “The” for “After creating desired ratios of various commensal skin bacteria in a healthy skin microbiome, 188 different carbohydrate sources were screened as the next step in determining potential prospects for skin microbiota balancing agents. The”
(§2) The Bacteria Codes B, D, E, I, and J are commensal bacteria and are shaded in Table 2 for references purposes. The bacteria codes were each placed in a carbon microarray plate and screened through the Carbohydrate Screening Test Method, as described in the Test Methods section herein. If a particular bacteria code utilized a specific carbohydrate source as described in the Carbohydrate Screening Test Method, then the corresponding cell in Table 2 was marked with a Y (short for “Yes”).
To do so, the respective microarray data for the 79 carbohydrate sources was run through the GrowthRates 2.1 program to obtain growth parameters, such as growth rates and maximum yield data as described by the Belingham Research Institute, Hall, B. G., H. Acar and M. Barlow. […] Mol. Biol. Evol. […] The max yield parameters generated were utilized to calculate ratios of tested commensal bacteria. The ratios calculated were compared back to the desired ratios identified above (Corynebacterium to Staphylococcus of 1.3, Corynebacterium to Micrococcus of 1.4, and Staphylococcus to Micrococcus of 1.1).
(§3) As an example of this methodology used to calculate the commensal bacteria ratios and the difference between the calculated ratios and the desired ratios, an example code from Table 3 will be described. […] The max yields were then used to calculate ratios the bacteria would reach in a co-culture.
A passage of the culture was made using a sterile swab and streaked onto two M9*2 agar plates to prepare the incubated culture for the phenotype microarray pate according to Table 4.
All cultures were harvested and washed before inoculation into the carbon microarray plate (BiOLOG, Hayward Calif.), with Biolog Plates PM1 and PM2 each having a source definition of Carbon. The bacteria on the M9*2 agar was suspended via agitation with an inoculating loop in 1 mL of M9*1 media for collection in a 1.7 mL micro centrifuge tube, as noted in Table 4.

[3] = system: Micrococcus luteus (SK58); test: Carbohydrate Screening Test Method (Biolog phenotype microarray), Bacteria Code E; settings: for Carbohydrate Screening Results, Bacteria Code E: Commensal, carbon microarray plate, OD 600 nm, 36 hr, 33° C., positive = more than 0.05 OD units above zero, blank cell = not utilized
Source text: as §1, §2
To do so, the respective microarray data for the 79 carbohydrate sources was run through the GrowthRates 2.1 program to obtain growth parameters, such as growth rates and maximum yield data as described by the Belingham Research Institute, Hall, B. G., H. Acar and M. Barlow. 2014 Growth Rates Made Easy. Mol. Biol. Evol. 31:232-238 doi:10.1093/molbev/mst197. The max yield parameters generated were utilized to calculate ratios of tested commensal bacteria. The ratios calculated were compared back to the desired ratios identified above (Corynebacterium to Staphylococcus of 1.3, Corynebacterium to Micrococcus of 1.4, and Staphylococcus to Micrococcus of 1.1).
as §3

| Molecule | Carbohydrate Screening Results, Bacteria Code B [2] | Carbohydrate Screening Results, Bacteria Code E [3] | also measured |
| --- | --- | --- | --- |
| O=C1O[C@H]([C@@H](O)CO)[C@@H](O)[C@@H]1O [L-Galactonic Acid-γ-Lactone] | Y |  | Carbohydrate Screening Results, Bacteria Code C [1]: Y |
| Tween 40 | Y |  |  |
| O=C(O)CO [Glycolic Acid] | Y | Y |  |
| OC[C@H]1O[C@H](OC[C@H]2O[C@H](O[C@]3(CO)O[C@H](CO)[C@@H](O)[C@@H]3O)[C@H](O)[C@@H](O)[C@@H]2O)[C@H](O)[C@@H](O)[C@H]1O [D-Raffinose] |  |  | Carbohydrate Screening Results, Bacteria Code C [1]: Y |
| CC(=O)N[C@H]1[C@@H](O)[C@H](O)[C@@H](CO)O[C@H]1O [N-Acetyl-β-D-Mannosamine] | Y | Y |  |
| O=C(O)C(O)C(O)C(=O)O (stereo not drawn) [m-Tartaric Acid] | Y |  |  |
| C[C@H](N)C(=O)O [L-Alanine] |  | Y |  |
| O=C(O)[C@H](O)[C@@H](O)[C@H](O)[C@H](O)CO[C@H]1O[C@H](CO)[C@H](O)[C@H](O)[C@H]1O [Melibionic Acid] |  |  | Carbohydrate Screening Results, Bacteria Code C [1]: Y |
| Nc1ncnc2c1ncn2[C@@H]1O[C@H](CO)[C@@H](O)[C@H]1O [Adenosine] | Y | Y |  |
| O=C(O)CC(Br)C(=O)O (stereo not drawn) [Bromo Succinic Acid] | Y |  |  |
| CCC(=O)O [Propionic Acid] | Y | Y |  |
| C[C@@H](O)[C@H](N)C(=O)O [L-Threonine] | Y | Y |  |
| C[C@@H](N)C(=O)O [D-Alanine] | Y | Y | max yield ([2]; C. jeikeium, GrowthRates 2.1 on microarray data): 0.157; max yield ([3]; M. luteus SK58, GrowthRates 2.1 on microarray data): 0.098 |
| O=C(O)CCC(=O)C(=O)O [α-Keto-Glutaric Acid] | Y |  |  |
| NC(=O)[C@@H](O)[C@@H](O)[C@H](O)[C@@H](O)C=O [Glucuronamide] | Y | Y |  |
| CCC(O)C(=O)O (stereo not drawn) [α-Hydroxy Butyric Acid] | Y |  |  |
| CC(=O)CC(=O)O [Acetoacetic Acid] | Y | Y |  |
| C[C@H](N)C(=O)NCC(=O)O [L-Alanyl-Glycine] (H-Ala-Gly-OH) | Y | Y |  |
| O=CO [Formic Acid] | Y | Y |  |
| N[C@H](CC(=O)O)C(=O)O [D-Aspartic Acid] | Y | Y |  |
| NCC(=O)N[C@@H](CCC(=O)O)C(=O)O [Glycyl-L-Glutamic Acid] (H-Gly-Glu-OH) |  | Y |  |

| Molecule | Carbohydrate Screening Results, Bacteria Code B [2] | Carbohydrate Screening Results, Bacteria Code E [3] | also measured |
| --- | --- | --- | --- |
| NCCc1ccccc1 [Phenylethyl-amine] | Y |  |  |
| COC(=O)[C@@H](C)O [D-Lactic Acid Methyl Ester] |  |  | Carbohydrate Screening Results, Bacteria Code C [1]: Y |
| CC(O)CO (stereo not drawn) [1,2-Propanediol] | Y | Y |  |
| NCC(=O)N[C@@H](CC(=O)O)C(=O)O [Glycyl-L-Aspartic Acid] (H-Gly-Asp-OH) |  | Y |  |
| O=C(O)CC(CC(=O)O)C(=O)O [Tricarballylic Acid] |  | Y |  |
| O=C(O)C[C@H](O)C(=O)O [L-Malic Acid] | Y | Y |  |
| NC(=O)CC[C@H](N)C(=O)O [L-Glutamine] | Y |  | Carbohydrate Screening Results, Bacteria Code C [1]: Y |
| N[C@@H](C(=O)O)[C@@H](O)[C@H](O)[C@H](O)CO [D-Glucosaminic Acid] |  | Y |  |
| O=C[C@@H](O)[C@H](O[C@@H]1O[C@H](CO)[C@H](O)[C@H](O)[C@H]1O)[C@H](O)CO [3-0-β-D-Galacto-pyranosyl-D-Arabinose] |  |  | Carbohydrate Screening Results, Bacteria Code C [1]: Y |
| O=C(O)[C@@H]1CCCN1 [L-Proline] | Y | Y |  |
| OC[C@H]1O[C@@H](Oc2ccc(O)cc2)[C@H](O)[C@@H](O)[C@@H]1O [Arbutin] |  |  | Carbohydrate Screening Results, Bacteria Code C [1]: Y |
| O=C(O)[C@@H](O)[C@H](O)[C@H](O)[C@@H](O)C(=O)O [Mucic Acid] | Y |  |  |
| O=C(O)/C=C/C(=O)O [Fumaric Acid] | Y | Y |  |
| OC[C@@H](O)[C@H](O)[C@H](O)[C@@H](O)CO [Dulcitol] | Y | Y |  |
| O=C1CCC(C(=O)O)O1 (stereo not drawn) [α-Hydroxy Glutaric Acid-γ-Lactone] | Y | Y |  |
| CCC(=O)C(=O)O [α-Keto-Butyric Acid] | Y |  |  |
| O=C(O)Cc1cccc(O)c1 [m-Hydroxy Phenyl Acetic Acid] |  |  | Carbohydrate Screening Results, Bacteria Code C [1]: Y |
| O=CC(=O)O [Glyoxylic Acid] | Y |  |  |
| O=C(O)CC(O)(CC(=O)O)C(=O)O [Citric Acid] | Y |  |  |
| C[C@H](O)[C@@H](N)C(=O)O [D-Threonine] | Y | Y |  |
